According to patent US20230373952A1, “LACTAM COMPOUNDS AS Kv1.3 POTASSIUM SHAKER CHANNEL BLOCKERS” (D.E. Shaw Research, LLC, priority 2020, published 2023):
Like-named read-outs stand apart in the source and are kept apart here.

Legend:
Kv1.3 potassium channel = target: T1, Kv1.3 potassium channel (Homo sapiens, UniProt P22001); test: Kv1.3 potassium channel blocker activity, automated whole-cell patch clamp (Patchliner); assay type: cell-based; settings: whole-cell current inhibition, Hill fit
T1 construct: expressed in transfected cells
T1 sequence (P22001 whole entry): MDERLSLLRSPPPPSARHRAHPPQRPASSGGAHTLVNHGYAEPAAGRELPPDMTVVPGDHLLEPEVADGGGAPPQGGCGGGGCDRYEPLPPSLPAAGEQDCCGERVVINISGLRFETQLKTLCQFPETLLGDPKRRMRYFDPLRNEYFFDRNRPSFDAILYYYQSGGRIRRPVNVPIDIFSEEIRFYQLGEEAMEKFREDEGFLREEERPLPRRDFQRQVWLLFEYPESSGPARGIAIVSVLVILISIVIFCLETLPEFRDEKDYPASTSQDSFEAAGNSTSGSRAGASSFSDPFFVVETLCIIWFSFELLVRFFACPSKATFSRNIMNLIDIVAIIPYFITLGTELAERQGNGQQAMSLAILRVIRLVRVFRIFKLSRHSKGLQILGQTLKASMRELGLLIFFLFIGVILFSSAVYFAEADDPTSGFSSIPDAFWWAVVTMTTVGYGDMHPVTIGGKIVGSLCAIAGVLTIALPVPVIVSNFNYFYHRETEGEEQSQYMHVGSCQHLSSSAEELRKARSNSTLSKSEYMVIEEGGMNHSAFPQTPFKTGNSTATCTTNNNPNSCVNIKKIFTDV
Experimental: CHO-K1 cells stably expressing Kv1.3 were grown in DMEM containing 10% heat-inactivated FBS, 1 mM sodium pyruvate, 2 mM L-glutamine and G418 (500 μg/ml).
The currents were evoked by applying 100 ms depolarizing pulses from −90 mV (holding potential) to +40 mV were applied with 0.1 Hz frequency. […] 10-second breaks were used between pulse trains (see Table H below).
Passive leak currents were subtracted online using a P/4 procedure (HEKA Elektronik Dr. Schulze GmbH). […] Total compound incubation time before the next pulse train was not longer than 10 seconds. Peak current inhibition was observed during compound equilibration.

hERG channel = hERG channel (Homo sapiens, UniProt Q12809); test: cell-based
Chain of hERG channel (Q12809 whole entry): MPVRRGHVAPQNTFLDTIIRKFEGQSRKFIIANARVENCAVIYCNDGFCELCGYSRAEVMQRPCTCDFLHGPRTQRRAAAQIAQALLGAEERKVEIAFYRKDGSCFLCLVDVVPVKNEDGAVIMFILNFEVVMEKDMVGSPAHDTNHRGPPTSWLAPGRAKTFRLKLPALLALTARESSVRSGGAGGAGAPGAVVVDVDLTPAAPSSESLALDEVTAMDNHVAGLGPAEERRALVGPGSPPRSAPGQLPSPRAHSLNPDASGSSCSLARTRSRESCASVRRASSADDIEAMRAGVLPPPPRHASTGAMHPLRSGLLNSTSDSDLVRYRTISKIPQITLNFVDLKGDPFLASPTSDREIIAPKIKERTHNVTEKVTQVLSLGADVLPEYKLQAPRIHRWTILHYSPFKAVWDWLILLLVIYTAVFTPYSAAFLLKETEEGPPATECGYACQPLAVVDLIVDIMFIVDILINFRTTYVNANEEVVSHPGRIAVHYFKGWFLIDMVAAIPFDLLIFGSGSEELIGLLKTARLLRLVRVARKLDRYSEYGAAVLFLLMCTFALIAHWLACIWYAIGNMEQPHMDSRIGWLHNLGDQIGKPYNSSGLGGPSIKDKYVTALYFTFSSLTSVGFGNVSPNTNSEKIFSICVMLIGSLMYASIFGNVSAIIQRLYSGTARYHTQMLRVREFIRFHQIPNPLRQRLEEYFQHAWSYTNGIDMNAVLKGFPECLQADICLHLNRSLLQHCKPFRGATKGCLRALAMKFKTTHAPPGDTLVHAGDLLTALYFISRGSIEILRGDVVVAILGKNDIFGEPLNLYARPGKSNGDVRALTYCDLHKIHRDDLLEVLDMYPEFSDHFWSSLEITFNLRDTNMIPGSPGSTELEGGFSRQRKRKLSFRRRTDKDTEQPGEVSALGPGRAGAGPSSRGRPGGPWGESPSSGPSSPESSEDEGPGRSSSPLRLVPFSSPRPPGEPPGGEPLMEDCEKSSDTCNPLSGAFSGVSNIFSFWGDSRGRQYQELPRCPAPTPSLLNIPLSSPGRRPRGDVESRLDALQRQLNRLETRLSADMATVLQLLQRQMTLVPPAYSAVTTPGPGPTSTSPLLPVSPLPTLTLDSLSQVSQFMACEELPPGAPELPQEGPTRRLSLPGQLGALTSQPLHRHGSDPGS
Experimental: This assay is used to evaluate the disclosed compounds' inhibition activities against the hERG channel.
CHO-K1 cells stably expressing hERG were grown in Ham's F-12 Medium with glutamine containing 10% heat-inactivated FBS, 1% penicillin/streptomycin, hygromycin (100 μg/ml) and G418 (100 μg/ml). Cells were grown in culture flasks at 37° C. in a 5% CO2-humidified incubator.
All compounds were dissolved in DMSO at 30 mM. Compound stock solutions were freshly diluted with external solution to concentrations of 30 nM, 100 nM, 300 nM, 1 μM, 3 μM, 10 μM, 30 μM and 100 μM. The highest content of DMSO (0.3%) was present in 100 μM.
The voltage protocol (see Table I) was designed to simulate voltage changes during a cardiac action potential with a 300 ms depolarization to +20 mV (analogous to the plateau phase of the cardiac action potential), a repolarization for 300 ms to −50 mV (inducing a tail current) and a final step to the holding potential of −80 mV. The pulse frequency was 0.3 Hz. Control (compound-free) and compound pulse trains for each compound concentration applied contained 70 pulses.
Whole-cell current recordings and compound application were enabled by means of an automated patch clamp platform Patchliner (Nanion). EPC 10 patch clamp amplifier (HEKA) along with Patchmaster software (HEKA Elektronik Dr. Schulze GmbH) was used for data acquisition. Data were sampled at 10 kHz without filtering. Increasing compound concentrations were applied consecutively to the same cell without washouts in between.
AUC and PEAK values were obtained with Patchmaster (HEKA Elektronik Dr. Schulze GmbH). To determine IC50 the last single pulse in the pulse train corresponding to a given compound concentration was used. Obtained AUC and PEAK values in the presence of compound were normalized to control values in the absence of compound.

[1] = CHO-K1 cells stably expressing Kv1.3, read-out: Kv1.3 IC50

Structure (SMILES) | IC50 (Kv1.3 potassium channel; [1]) [nM] | IC50 (hERG channel) [µM] | IC50 (Kv1.3 potassium channel; Kv1.3 IC50, CHO-K1 cells stably expressing Kv1.3) [nM]
O=C1O[C@@H](c2c(O)ccc(Cl)c2Cl)CN1CCO (single isomer, unassigned; isomer 2) [Compound 94, 5-(2,3-dichloro-6-hydroxyphenyl)-3-(2-hydroxyethyl)oxazolidin-2-one isomer 2] | < 1000 | > 100 | –
O=C1CC[C@H](c2c(O)ccc(Cl)c2Cl)CN1[C@H]1CCNC1 (single isomer, unassigned) [Compound 7, 5-(2,3-dichloro-6-hydroxyphenyl)-1-[pyrrolidin-3-yl]piperidin-2-one] | < 100 | > 30 | –
Cn1cc(N2CC(c3c(O)ccc(Cl)c3Cl)CC2=O)ccc1=O (stereo not shown) [Compound 57, 5-[4-(2,3-dichloro-6-hydroxyphenyl)-2-oxopyrrolidin-1-yl]-1-methylpyridin-2-one] | < 100 | > 10 | –
Cc1ncc(N2C[C@H](c3c(O)ccc(Cl)c3Cl)CC2=O)s1 [Compound 67, (S)-4-(2,3-dichloro-6-hydroxyphenyl)-1-(2-methylthiazol-5-yl)pyrrolidin-2-one] | < 100 | > 100 | –
C[C@H]1[C@H](c2c(O)ccc(Cl)c2Cl)CC(=O)N1CCCO [Compound 86, (4S,5S)-4-(2,3-dichloro-6-hydroxyphenyl)-1-(3-hydroxypropyl)-5-methylpyrrolidin-2-one] | < 100 | > 30 | –
O=C1N[C@@H](c2c(O)ccc(Cl)c2Cl)CN1CCO [Compound 99, (4S)-4-(2,3-dichloro-6-hydroxyphenyl)-1-(2-hydroxyethyl)imidazolidin-2-one] | < 100 | > 100 | –
Cn1cnc(N2C[C@H](c3c(O)ccc(Cl)c3Cl)CC2=O)n1 [Compound 66, (S)-4-(2,3-dichloro-6-hydroxyphenyl)-1-(1-methyl-1H-1,2,4-triazol-3-yl)pyrrolidin-2-one] | < 1000 | > 100 | –
Cn1cc(N2C[C@H](c3c(O)ccc(Cl)c3Cl)CC2=O)cn1 [Compound 56, (4S)-4-(2,3-dichloro-6-hydroxyphenyl)-1-(1-methylpyrazol-4-yl)pyrrolidin-2-one] | < 100 | > 100 | –
O=C1C[C@@H](c2c(O)ccc(Cl)c2Cl)CN1[C@H]1C[C@](O)(CO)C1 (single isomer, unassigned; isomer 4) [Compound 71] | < 100 | > 100 | –
O=C1C[C@H](c2c(O)ccc(Cl)c2Cl)CN1[C@H]1CCNC1 (single isomer, unassigned) [Compound 15, 4-(2,3-dichloro-6-hydroxyphenyl)-[1,3-bipyrrolidin]-2-one] | < 100 | > 30 | –
O=C1C[C@@H](c2cc(Cl)c(Cl)cc2O)CN1C1CNC1 [Compound 22, (4S)-1-(azetidin-3-yl)-4-(4,5-dichloro-2-hydroxyphenyl)pyrrolidin-2-one] | < 1000 | > 100 | –
O=C1CC(c2c(O)ccc(Cl)c2Cl)CCN1C1CCNC1 (single isomer, unassigned) [Compound 1, 4-(2,3-dichloro-6-hydroxyphenyl)-1-[pyrrolidin-3-yl]piperidin-2-one] | < 100 | > 30 | –
O=C1C[C@@H](c2c(O)ccc(Cl)c2Cl)CN1CC(CO)CO [Compound 42, (4S)-4-(2,3-dichloro-6-hydroxyphenyl)-1-[3-hydroxy-2-(hydroxymethyl)propyl]pyrrolidin-2-one] | < 100 | > 30 | –
O=C1N[C@@H](c2c(O)ccc(Cl)c2Cl)CN1C[C@H](O)CO [Compound 102, (4S)-4-(2,3-dichloro-6-hydroxyphenyl)-1-[(2S)-2,3-dihydroxypropyl]imidazolidin-2-one] | < 100 | > 100 | –
NC[C@@H](O)CN1C[C@H](c2c(O)ccc(Cl)c2Cl)CC1=O (single isomer, unassigned; isomer 1) [Compound 51] | < 100 | > 100 | –
O=C1C[C@@H](c2c(O)ccc(Cl)c2Cl)CN1C[C@H]1C[C@@H](O)C1 (single isomer, unassigned; isomer 2) [Compound 32] | < 100 | > 30 | –
O=C1C[C@@H](c2c(O)ccc(Cl)c2Cl)CN1CCCO [Compound 35, (4S)-4-(2,3-dichloro-6-hydroxyphenyl)-1-(3-hydroxypropyl)pyrrolidin-2-one] | < 10 | > 30 | –
Cn1cc(N2C[C@H](c3c(O)ccc(Cl)c3Cl)CC2=O)nn1 [Compound 65, (S)-4-(2,3-dichloro-6-hydroxyphenyl)-1-(1-methyl-1H-1,2,3-triazol-4-yl)pyrrolidin-2-one] | < 1000 | > 10 | –
O=C1C[C@@H](c2c(O)ccc(Cl)c2Cl)CN1C1CCOCC1 [Compound 17, (4S)-4-(2,3-dichloro-6-hydroxyphenyl)-1-(pyran-4-yl)pyrrolidin-2-one] | < 1000 | > 30 | –

Structure (SMILES) | IC50 (Kv1.3 potassium channel; [1]) [nM] | IC50 (hERG channel) [µM] | IC50 (Kv1.3 potassium channel; Kv1.3 IC50, CHO-K1 cells stably expressing Kv1.3) [nM]
O=C1C[C@@H](c2c(O)ccc(Cl)c2Cl)CN1[C@H]1CCNC1 (single isomer, unassigned) [Compound 12, 4-(2,3-dichloro-6-hydroxyphenyl)-[1,3-bipyrrolidin]-2-one] | < 1000 | > 30 | –
CC1[C@H](c2c(O)ccc(Cl)c2Cl)CC(=O)N1C1CNC1 (stereo in doubt) [Compound 77, (4S,5S)-1-(azetidin-3-yl)-4-(2,3-dichloro-6-hydroxyphenyl)-5-methylpyrrolidin-2-one] | < 100 | > 30 | –
C[C@@H](CO)N1C[C@H](c2c(O)ccc(Cl)c2Cl)CC1=O (single isomer, unassigned; isomer 2) [Compound 39] | < 1000 | > 100 | –
Nc1cc(N2C[C@H](c3c(O)ccc(Cl)c3Cl)CC2=O)ccn1 [Compound 62, (S)-1-(2-aminopyridin-4-yl)-4-(2,3-dichloro-6-hydroxyphenyl)pyrrolidin-2-one] | < 100 | > 1 | –
O=C1C[C@@H](c2c(O)ccc(Cl)c2Cl)CN1c1cnoc1 [Compound 72, (4S)-4-(2,3-dichloro-6-hydroxyphenyl)-1-(isoxazol-4-yl)pyrrolidin-2-one] | < 1000 | > 100 | –
C[C@H](O)CN1C[C@H](c2c(O)ccc(Cl)c2Cl)CC1=O [Compound 54, (4S)-4-(2,3-dichloro-6-hydroxyphenyl)-1-[(2S)-2-hydroxypropyl]pyrrolidin-2-one] | < 100 | > 30 | –
NCCN1C[C@H](c2c(O)ccc(Cl)c2Cl)CC1=O [Compound 21, (4S)-1-(2-aminoethyl)-4-(2,3-dichloro-6-hydroxyphenyl)pyrrolidin-2-one] | < 100 | > 100 | –
Cn1cc(CN2C[C@H](c3c(O)ccc(Cl)c3Cl)CC2=O)cn1 [Compound 23, (4S)-4-(2,3-dichloro-6-hydroxyphenyl)-1-[(1-methylpyrazol-4-yl)methyl]pyrrolidin-2-one] | < 1000 | > 30 | –
C[C@@H]1C(=O)N(C2CNC2)C[C@@H]1c1c(O)ccc(Cl)c1Cl (single isomer, unassigned; isomer 4) [Compound 90, 1-(azetidin-3-yl)-4-(2,3-dichloro-6-hydroxyphenyl)-3-methylpyrrolidin-2-one isomer 4] | < 1000 | > 100 | –
NC(=O)CCN1C[C@H](c2c(O)ccc(Cl)c2Cl)CC1=O [Compound 40, (S)-3-(4-(2,3-dichloro-6-hydroxyphenyl)-2-oxopyrrolidin-1-yl)propanamide] | < 100 | > 100 | –
O=C1C[C@@H](c2c(O)ccc(Cl)c2Cl)CN1C[C@@H](O)CO [Compound 33, (4S)-4-(2,3-dichloro-6-hydroxyphenyl)-1-[(2R)-2,3-dihydroxypropyl]pyrrolidin-2-one] | < 100 | > 100 | –
N[C@@H]1C(=O)N(CCO)C[C@@H]1c1c(O)ccc(Cl)c1Cl [Compound 105] | < 1000 | > 100 | –
O=C1CO[C@H](c2c(O)ccc(Cl)c2Cl)CN1CCO (single isomer, unassigned; isomer 1) [Compound 95, 6-(2,3-dichloro-6-hydroxyphenyl)-4-(2-hydroxyethyl)morpholin-3-one isomer 1] | < 1000 | > 100 | –
CC(CO)N1C[C@H](c2c(O)ccc(Cl)c2Cl)CC1=O (single isomer, unassigned; isomer 1) [Compound 38] | < 1000 | > 30 | –
O=C1N[C@@H](c2c(O)ccc(Cl)c2Cl)CN1CCCO [Compound 104, (4S)-4-(2,3-dichloro-6-hydroxyphenyl)-1-(3-hydroxypropyl)imidazolidin-2-one] | < 100 | > 100 | –
CC1[C@@H](c2c(O)ccc(Cl)c2Cl)CC(=O)N1C1CNC1 (stereo in doubt) [Compound 76, (4R,5R)-1-(azetidin-3-yl)-4-(2,3-dichloro-6-hydroxyphenyl)-5-methylpyrrolidin-2-one] | < 1000 | > 100 | –
O=C1C[C@@H](c2c(O)ccc(Cl)c2Cl)CN1CC1(CO)CNC1 [Compound 46, (S)-4-(2,3-dichloro-6-hydroxyphenyl)-1-((3-(hydroxymethyl)azetidin-3-yl)methyl)pyrrolidin-2-one] | < 100 | > 100 | –
O=C1C[C@@H](c2c(O)ccc(Cl)c2Cl)CN1c1ccncc1 [Compound 64, (S)-4-(2,3-dichloro-6-hydroxyphenyl)-1-(pyridin-4-yl)pyrrolidin-2-one] | < 100 | > 10 | –
NC(=O)CN1C[C@H](c2c(O)ccc(Cl)c2Cl)CC1=O [Compound 34, 2-[(4S)-4-(2,3-dichloro-6-hydroxyphenyl)-2-oxopyrrolidin-1-yl]acetamide] | – | > 100 | < 100
